{"source": "patent US10206937B2", "about": "“Boronic acid derivatives and therapeutic uses thereof” (Qpex Biopharma, Inc., priority 2014, dated 2019)", "system": "strains of Enterobacteriaceae producing various carbapenemases (class A, D and B; 104 strains)", "assay": "Antibiotics potentiation by Compound 27 (MIC; meropenem, doripenem, ertapenem, cefepime)", "type": "cell-based", "details": "+ 27 = with Compound 27 at fixed 4 μg/ml"}
{"smiles": "COc1ccc2c(c1C(=O)O)OB(O)C(Sc1nnc(N)s1)C2", "note": "(stereo not shown) [C + 27]", "values": [{"measurement": "MIC", "setting": "strain CF1012 Citrobacter freundii (KPC-2)", "value": "X (MIC of less than 1 μg/mL)"}, {"measurement": "MIC", "setting": "strain CF1021 Citrobacter freundii (CMY-type; VIM-1)", "value": "X (MIC of less than 1 μg/mL)"}, {"measurement": "MIC", "setting": "strain CF1022 Citrobacter freundii (SHV-12(2be), TEM-OSBL(2b); IMP-8)", "value": "X (MIC of less than 1 μg/mL)"}, {"measurement": "MIC", "setting": "strain CF1023 Citrobacter freundii (SHV-12(2be), TEM-OSBL(2b); CTX-M-3; CMY-34; NDM-1)", "value": "X (MIC of less than 1 μg/mL)"}, {"measurement": "MIC", "setting": "strain CL1080 Enterobacter cloacae (IMP-1)", "value": "Y (MIC of 1 μg/mL to 10 μg/mL)"}, {"measurement": "MIC", "setting": "strain EA1019 Enterobacter aerogenes (SHV-5, VIM-1)", "value": "Y (MIC of 1 μg/mL to 10 μg/mL)"}, {"measurement": "MIC", "setting": "strain EC1007 Escherichia coli (KPC-3)", "value": "X (MIC of less than 1 μg/mL)"}, {"measurement": "MIC", "setting": "strain EC1061 Escherichia coli (NDM-1, CMY-6)", "value": "X (MIC of less than 1 μg/mL)"}, {"measurement": "MIC", "setting": "strain EC1062 Escherichia coli (OXA-48, CTX-M-15)", "value": "X (MIC of less than 1 μg/mL)"}, {"measurement": "MIC", "setting": "strain EC1064 Escherichia coli (NDM-1, CMY-6, CTX-M-15)", "value": "Z (MIC of greater than 10 μg/mL)"}, {"measurement": "MIC", "setting": "strain EC1065 Escherichia coli (IMP-1)", "value": "X (MIC of less than 1 μg/mL)"}, {"measurement": "MIC", "setting": "strain EC1068 Escherichia coli (VIM-1)", "value": "Y (MIC of 1 μg/mL to 10 μg/mL)"}, {"measurement": "MIC", "setting": "strain EC1069 Escherichia coli (CTX-M-27; NDM-1)", "value": "X (MIC of less than 1 μg/mL)"}, {"measurement": "MIC", "setting": "strain EC1070 Escherichia coli (TEM-OSBL(2b); CMY-42; NDM-5)", "value": "X (MIC of less than 1 μg/mL)"}, {"measurement": "MIC", "setting": "strain EC1072 Escherichia coli (CTX-M-3; NDM-1)", "value": "Y (MIC of 1 μg/mL to 10 μg/mL)"}, {"measurement": "MIC", "setting": "strain ECL1004 Enterobacter cloacae (NMC-A)", "value": "X (MIC of less than 1 μg/mL)"}, {"measurement": "MIC", "setting": "strain ECL1026 Enterobacter cloacae (KPC-2, TEM-1)", "value": "X (MIC of less than 1 μg/mL)"}, {"measurement": "MIC", "setting": "strain ECL1036 Enterobacter cloacae (KPC-3, TEM-1)", "value": "X (MIC of less than 1 μg/mL)"}, {"measurement": "MIC", "setting": "strain ECL1045 Enterobacter cloacae (VIM-1)", "value": "Y (MIC of 1 μg/mL to 10 μg/mL)"}, {"measurement": "MIC", "setting": "strain ECL1055 Enterobacter cloacae (KPC-3, TEM)", "value": "X (MIC of less than 1 μg/mL)"}, {"measurement": "MIC", "setting": "strain ECL1057 Enterobacter cloacae (NDM-1, TEM-1, CTX-M-15)", "value": "Z (MIC of greater than 10 μg/mL)"}, {"measurement": "MIC", "setting": "strain ECL1058 Enterobacter cloacae (KPC-3, SHV-11, TEM-1)", "value": "X (MIC of less than 1 μg/mL)"}, {"measurement": "MIC", "setting": "strain ECL1059 Enterobacter cloacae (KPC-3, SHV-12, TEM-1)", "value": "X (MIC of less than 1 μg/mL)"}, {"measurement": "MIC", "setting": "strain ECL1061 Enterobacter cloacae (KPC-3, Hyper AmpC expression)", "value": "Y (MIC of 1 μg/mL to 10 μg/mL)"}, {"measurement": "MIC", "setting": "strain ECL1082 Enterobacter cloacae (VIM-1)", "value": "Y (MIC of 1 μg/mL to 10 μg/mL)"}, {"measurement": "MIC", "setting": "strain ECL1084 Enterobacter cloacae (CTX-M-15; ACT-16; NDM-1)", "value": "X (MIC of less than 1 μg/mL)"}, {"measurement": "MIC", "setting": "strain ECL1085 Enterobacter cloacae (SHV-31(2be), TEM-1(2b); CTX-M-15; NDM-1)", "value": "X (MIC of less than 1 μg/mL)"}, {"measurement": "MIC", "setting": "strain ECL1086 Enterobacter cloacae (VIM-31, OXA-48(c))", "value": "Y (MIC of 1 μg/mL to 10 μg/mL)"}, {"measurement": "MIC", "setting": "strain ECL1087 Enterobacter cloacae (VIM-1)", "value": "Y (MIC of 1 μg/mL to 10 μg/mL)"}, {"measurement": "MIC", "setting": "strain ECL1088 Enterobacter cloacae (TEM-1(2b); CTX-M-14; ACT-type; VIM-1)", "value": "Y (MIC of 1 μg/mL to 10 μg/mL)"}, {"measurement": "MIC", "setting": "strain ECL1089 Enterobacter cloacae (ACT-type; IMP-1)", "value": "Z (MIC of greater than 10 μg/mL)"}, {"measurement": "MIC", "setting": "strain ECL1090 Enterobacter cloacae (TEM-1(2b); CTX-M-22; ACT-type; IMP-8)", "value": "Y (MIC of 1 μg/mL to 10 μg/mL)"}, {"measurement": "MIC", "setting": "strain ECL1091 Enterobacter cloacae (VIM-1)", "value": "Y (MIC of 1 μg/mL to 10 μg/mL)"}, {"measurement": "MIC", "setting": "strain ECL1092 Enterobacter cloacae (TEM-OSBL(2b); ACT-32; VIM-1)", "value": "X (MIC of less than 1 μg/mL)"}, {"measurement": "MIC", "setting": "strain ECL1093 Enterobacter cloacae (TEM-OSBL(2b); ACT-32; VIM-1)", "value": "X (MIC of less than 1 μg/mL)"}, {"measurement": "MIC", "setting": "strain ECL1094 Enterobacter cloacae (VIM-1)", "value": "Y (MIC of 1 μg/mL to 10 μg/mL)"}, {"measurement": "MIC", "setting": "strain ECL1096 Enterobacter cloacae (CMY-4, VIM-4, OXA-48(c))", "value": "X (MIC of less than 1 μg/mL)"}, {"measurement": "MIC", "setting": "strain ECL1097 Enterobacter cloacae (SHV-31(2be), TEM-OSBL(2b); CTX-M-15; ACT-31; NDM-1)", "value": "X (MIC of less than 1 μg/mL)"}, {"measurement": "MIC", "setting": "strain ECL1098 Enterobacter cloacae (TEM-OSBL(2b); DHA-1; ACT-16; NDM-1)", "value": "X (MIC of less than 1 μg/mL)"}, {"measurement": "MIC", "setting": "strain KP1001 Klebsiella pneumoniae (KPC TEM SHV)", "value": "Y (MIC of 1 μg/mL to 10 μg/mL)"}, {"measurement": "MIC", "setting": "strain KP1002 Klebsiella pneumoniae (KPC TEM SHV)", "value": "X (MIC of less than 1 μg/mL)"}, {"measurement": "MIC", "setting": "strain KP1003 Klebsiella pneumoniae (KPC TEM SHV)", "value": "X (MIC of less than 1 μg/mL)"}, {"measurement": "MIC", "setting": "strain KP1004 Klebsiella pneumoniae (KPC-2, TEM-1, SHV-11)", "value": "X (MIC of less than 1 μg/mL)"}, {"measurement": "MIC", "setting": "strain KP1008 Klebsiella pneumoniae (KPC-2)", "value": "X (MIC of less than 1 μg/mL)"}, {"measurement": "MIC", "setting": "strain KP1014 Klebsiella pneumoniae (VIM-1, TEM, SHV)", "value": "X (MIC of less than 1 μg/mL)"}, {"measurement": "MIC", "setting": "strain KP1054 Klebsiella pneumoniae (VIM-1, SHV-11)", "value": "X (MIC of less than 1 μg/mL)"}, {"measurement": "MIC", "setting": "strain KP1059 Klebsiella pneumoniae (VIM-1, SHV-11)", "value": "Y (MIC of 1 μg/mL to 10 μg/mL)"}, {"measurement": "MIC", "setting": "strain KP1061 Klebsiella pneumoniae (KPC-3, SHV-11, TEM-1)", "value": "X (MIC of less than 1 μg/mL)"}, {"measurement": "MIC", "setting": "strain KP1064 Klebsiella pneumoniae (KPC-2, SHV-11, TEM-1)", "value": "Y (MIC of 1 μg/mL to 10 μg/mL)"}, {"measurement": "MIC", "setting": "strain KP1065 Klebsiella pneumoniae (VIM-1, SHV-11)", "value": "X (MIC of less than 1 μg/mL)"}, {"measurement": "MIC", "setting": "strain KP1070 Klebsiella pneumoniae (KPC-2, SHV-11, TEM-1)", "value": "X (MIC of less than 1 μg/mL)"}, {"measurement": "MIC", "setting": "strain KP1074 Klebsiella pneumoniae (KPC-3, SHV-11, TEM)", "value": "Z (MIC of greater than 10 μg/mL)"}]}
